From article PMC11770272, “Surface immobilization of single atoms on heteroatom-doped carbon nanospheres through phenolic-mediated interfacial anchoring for highly efficient biocatalysis” (Chemical Science, 2025)

System: T1, natural horseradish peroxidase (HRP)
T1 construct: gene PRXC1A
Assay: steady-state kinetics, absorbance of oxidized TMB at […] nm
Type: biochemical, Armoracia rusticana
Details: H2O2 as co-substrate, HAc-NaAc buffer pH 3.6, 37 °C

Question: Which Km does the source give for `Cc1cc(-c2cc(C)c(N)c(C)c2)cc(C)c1N` [TMB] here?
Answer: 1650 µM
